Source: patent publication US10195578B2, “Peptide library production method, peptide library, and screening method” (The University of Tokyo, priority 2010, dated 2019)
Where a name gives a salt, the structure may show the parent alone. Where a SMILES comes first, the peptide text is derived from it. Bridges are numbered along the chain shown (N, C = ends). Where no end group is shown, it is not given here. [ ]: non-standard residue; d: D form. The star is where a group is joined. Tfa = O=C(C(F)(F)F)*

Target: T1, SIRT2 (Homo sapiens, UniProt Q8IXJ6)
T1 sequence (Q8IXJ6 1-389): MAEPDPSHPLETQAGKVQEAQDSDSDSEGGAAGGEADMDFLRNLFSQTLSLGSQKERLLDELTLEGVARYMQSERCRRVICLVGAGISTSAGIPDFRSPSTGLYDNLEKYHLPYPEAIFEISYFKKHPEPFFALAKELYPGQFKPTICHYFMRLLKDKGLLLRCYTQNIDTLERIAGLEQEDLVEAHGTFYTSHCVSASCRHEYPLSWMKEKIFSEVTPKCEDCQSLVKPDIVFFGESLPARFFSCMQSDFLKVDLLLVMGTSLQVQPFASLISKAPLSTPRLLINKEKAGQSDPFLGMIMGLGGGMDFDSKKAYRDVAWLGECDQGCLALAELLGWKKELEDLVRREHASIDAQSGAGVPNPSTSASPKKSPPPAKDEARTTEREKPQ
Assay: Evaluation of inhibitory activity of peptides against SIRT2 (fluorescence-using system)
Type: biochemical
Conditions: peptide at 1 μM; FIG. 3
From the text: In an evaluation system using fluorescence, the inhibitory activity of the selected peptides against SIRT2 was studied. More specifically, first, peptides to be deacetylated with SIRT2 each having, at both ends thereof, a fluorescent group and a quenching group is deacetylated by mixing with SIRT2. When the resulting peptides are reacted with protease that cleaves only a deacetylated peptide, the quenching group is dissociated from the fluorescent group of only the peptides deacetylated with SIRT2 and fluorescence is emitted. During this deacetylation reaction, presence of an inhibitor against SIRT2 retards the progress of deacetylation of the substrate peptide and fluorescence intensity obtained in the end decreases. This means that the inhibitory ability of the selected peptides can be evaluated by the intensity of fluorescence observed in the end.

Molecule | inhibitory ability against SIRT2 (activity of SIRT2, fluorescence intensity)
CC[C@H](C)[C@@H]1NC(=O)[C@H](CCCNC(=N)N)NC(=O)[C@H](Cc2ccc(O)cc2)NC(=O)[C@H](CC(=O)O)NC(=O)[C@H](Cc2c[nH]cn2)NC(=O)[C@@H](Cc2ccc(O)cc2)NC(=O)CSC[C@@H](C(=O)NCC(=O)N[C@@H](CO)C(=O)NCC(=O)N[C@@H](CO)C(=O)NCC(=O)N[C@@H](CO)C(=O)O)NC(=O)[C@@H]2CCCN2C(=O)[C@H](Cc2ccc(O)cc2)NC(=O)[C@H]([C@@H](C)O)NC(=O)[C@H](Cc2c[nH]cn2)NC(=O)[C@H](Cc2ccc(O)cc2)NC(=O)[C@H](CCCNC(=N)N)NC(=O)[C@H](CCCCNC(=O)C(F)(F)F)NC1=O [2D-08, XHDYRIZRYHTYPC] ({CH2CO}-[dY]HDYRIK(Tfa)RYHTYPCGSGSGS-OH; thioether N-14; N-terminus and C-terminus assumed) | completely suppressed the activity of SIRT2
CC[C@H](C)[C@@H]1NC(=O)[C@H](CCCNC(=N)N)NC(=O)[C@H](Cc2ccccc2)NC(=O)[C@H](CC(N)=O)NC(=O)[C@H](CO)NC(=O)[C@H](Cc2ccc(O)cc2)NC(=O)CSC[C@@H](C(=O)NCC(=O)N[C@@H](CO)C(=O)NCC(=O)N[C@@H](CO)C(=O)NCC(=O)N[C@@H](CO)C(=O)O)NC(=O)[C@H](CO)NC(=O)[C@H](CO)NC(=O)[C@H](CC(N)=O)NC(=O)[C@H](CO)NC(=O)[C@H](Cc2ccc(O)cc2)NC(=O)[C@H](CCCNC(=N)N)NC(=O)[C@H](CCCCNC(=O)C(F)(F)F)NC1=O [2L-08, XSNFRIZRYSNSSC] ({CH2CO}-YSNFRIK(Tfa)RYSNSSCGSGSGS-OH; thioether N-14; N-terminus and C-terminus assumed) | completely suppressed the activity of SIRT2
XYNTIIZTYGC ({CH2CO}-[dY]YNTIIK(trifluoroacetyl)TYGCGSGSGS; thioether N-11 (inferred)) [2D-03, thioether-cyclized peptide from NNC library; X = α-N-chloroacetyl-D-tyrosine, Z = ε-N-trifluoroacetyllysine] | completely suppressed the activity of SIRT2
XHTYHNZRRTNYYC [2L-05] | completely suppressed the activity of SIRT2
